Measurements: patent US20240083900A1, “PYRAZOLO[1,5-A]PYRAZINE DERIVATIVES AS BTK INHIBITORS” (BIOGEN MA INC., priority 2020, published 2024)
Like-named read-outs stand apart in the source and are kept apart here.

Legend:
BTK = BTK (Homo sapiens (Human), UniProt Q06187); experiment: In Vitro BTK Kinase Assay: Btk-PolyGAT-LS Assay; format: biochemical; settings: BTK enzyme 0.25 nM, ATP 10 μM, polyGAT 100 nM, 30 minutes incubation, TRF readout; read-out: IC50
Summary of the method: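 Human BTK activity was measured with final 10 μM ATP and 100 nM polyGAT substrate in pH 7.5 Tris buffer with 10 mM MgCl2, DTT, Triton X-100 and casein.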

[1] = tested on: CD69 expression on CD19+ B cells in human whole blood stimulated with anti-human IgD; experiment: In Vitro whole blood CD69 Assay; format: cell-based; settings: human heparinized whole blood, anti-human IgD stimulation overnight, percentage of CD19+ B cells expressing CD69, flow cytometry, read-out: IC50

BTK, sequence (Q06187 whole entry): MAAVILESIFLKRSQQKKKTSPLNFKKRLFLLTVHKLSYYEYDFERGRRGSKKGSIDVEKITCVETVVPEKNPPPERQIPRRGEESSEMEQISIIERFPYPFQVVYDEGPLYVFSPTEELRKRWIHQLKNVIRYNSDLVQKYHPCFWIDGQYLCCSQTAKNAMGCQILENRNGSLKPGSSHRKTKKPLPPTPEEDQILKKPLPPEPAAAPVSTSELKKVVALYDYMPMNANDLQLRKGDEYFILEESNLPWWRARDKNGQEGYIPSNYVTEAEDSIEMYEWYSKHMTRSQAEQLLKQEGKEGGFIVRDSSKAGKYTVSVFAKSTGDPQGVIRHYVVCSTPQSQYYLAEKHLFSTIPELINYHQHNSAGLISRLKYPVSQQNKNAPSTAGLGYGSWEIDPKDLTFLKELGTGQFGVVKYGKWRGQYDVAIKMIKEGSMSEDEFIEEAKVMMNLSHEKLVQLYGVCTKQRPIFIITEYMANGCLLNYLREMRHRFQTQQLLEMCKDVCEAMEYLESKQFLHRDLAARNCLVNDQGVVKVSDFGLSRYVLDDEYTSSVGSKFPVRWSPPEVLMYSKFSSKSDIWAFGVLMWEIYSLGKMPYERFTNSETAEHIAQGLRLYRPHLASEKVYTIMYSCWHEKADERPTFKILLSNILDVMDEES

SMILES | IC50 (BTK) | IC50 ([1]; Homo sapiens, B-cell) | IC50 [1]
C=CC(=O)N1CC[C@@H]2[C@H](Oc3nc(-c4cnn(C)c4)cn4nccc34)C(C)(C)[C@@H]21 [Example 172, 1-((1R,5S,6S)-7,7-dimethyl-6-((6-(1-methyl-1H-pyrazol-4-yl)pyrazolo[1,5-a]pyrazin-4-yl)oxy)-2-azabicyclo[3.2.0]heptan-2-yl)prop-2-en-1-one] | < 0.001 µM | 1 to 10 µM | –
C=CC(=O)N(C)[C@@H]1CC[C@H](Oc2nc(-c3cnn(C)c3)cn3ncc(-c4ccccc4)c23)C1 [Example 173, N-methyl-N-((1R,3S)-3-(6-(1-methylpyrazol-4-yl)-3-phenyl-pyrazolo[1,5-a]pyrazin-4-yl)oxycyclopentyl)prop-2-enamide] | 0.001 to 0.01 µM | 1 to 10 µM | –
C=CC(=O)N1C[C@H]2C[C@H](Oc3nc(-c4cnn(C)c4)cn4nccc34)C[C@H]2C1 [Example 174, 1-((3aR,5s,6aS)-5-((6-(1-methyl-1H-pyrazol-4-yl)pyrazolo[1,5-a]pyrazin-4-yl)oxy)hexahydrocyclopenta[c]pyrrol-2(1H)-yl)prop-2-en-1-one] | < 0.001 µM | < 1 µM | –
CC#CC(=O)N(C)[C@H]1CCC[C@@H](Oc2nc(-c3cnn(C)c3)cn3nccc23)C1 [Example 177, N-methyl-N-((1S,3R)-3-((6-(1-methyl-1H-pyrazol-4-yl)pyrazolo[1,5-a]pyrazin-4-yl)oxy)cyclohexyl)but-2-ynamide] | < 0.001 µM | < 1 µM | –
CC#CC(=O)N(C)[C@@H]1CCC[C@H](Oc2nc(-c3cnn(C)c3)cn3nccc23)C1 [Example 178, N-methyl-N-((1R,3S)-3-((6-(1-methyl-1H-pyrazol-4-yl)pyrazolo[1,5-a]pyrazin-4-yl)oxy)cyclohexyl)but-2-ynamide] | 0.01 to 1 µM | 1 to 10 µM | –
CC#CC(=O)N[C@H]1CCC[C@@H](Oc2nc(-c3cnn(C)c3)cn3nccc23)C1 [Example 179, N-((1S,3R)-3-((6-(1-methyl-1H-pyrazol-4-yl)pyrazolo[1,5-a]pyrazin-4-yl)oxy)cyclohexyl)but-2-ynamide] | < 0.001 µM | < 1 µM | –
C=CC(=O)N(C)CCOc1nc(-c2cnn(C)c2)cn2nccc12 [Example 183, N-methyl-N-(3-((6-(1-methyl-1H-pyrazol-4-yl)pyrazolo[1,5-a]pyrazin-4-yl)oxy)ethyl)acrylamide] | 0.001 to 0.01 µM | 1 to 10 µM | –
C=CC(=O)N[C@H]1C[C@@](C)(Oc2nc(-c3cnc(C)s3)cn3nccc23)C1 [Example 186, N-((1s,3s)-3-methyl-3-((6-(2-methylthiazol-5-yl)pyrazolo[1,5-a]pyrazin-4-yl)oxy)cyclobutyl)acrylamide] | < 0.001 µM | < 1 µM | –
C=CC(=O)N1CCC[C@](F)(COc2nc(-c3cnn(C)c3)cn3nccc23)C1 [Example 187, (R)-1-(3-fluoro-3-(((6-(1-methyl-1H-pyrazol-4-yl)pyrazolo[1,5-a]pyrazin-4-yl)oxy)methyl)piperidin-1-yl)prop-2-en-1-one] | < 0.001 µM | < 1 µM | –
C=CC(=O)N1CCC[C@@](F)(COc2nc(-c3cnn(C)c3)cn3nccc23)C1 [Example 188, (S)-1-(3-fluoro-3-(((6-(1-methyl-1H-pyrazol-4-yl)pyrazolo[1,5-a]pyrazin-4-yl)oxy)methyl)piperidin-1-yl)prop-2-en-1-one] | 0.001 to 0.01 µM | < 1 µM | –
C=CC(=O)N1CCC(C)(COc2nc(-c3cnn(C)c3)cn3nccc23)CC1 [Example 189, 1-(4-methyl-4-(((6-(1-methyl-1H-pyrazol-4-yl)pyrazolo[1,5-a]pyrazin-4-yl)oxy)methyl)piperidin-1-yl)prop-2-en-1-one] | 0.001 to 0.01 µM | 1 to 10 µM | –
C[C@@H]1O[C@H]1C(=O)N1CC[C@@H]2[C@H]1C[C@@]2(C)Oc1nc(-c2cnn(C)c2)cn2nccc12 [Example 192, ((1R,5R,6R)-6-methyl-6-((6-(1-methyl-1H-pyrazol-4-yl)pyrazolo[1,5-a]pyrazin-4-yl)oxy)-2-azabicyclo[3.2.0]heptan-2-yl)((2R,3S)-3-methyloxiran-2-yl)methanone] | 0.01 to 1 µM | 1 to 10 µM | –
C=CC(=O)N1C[C@H]2C[C@@H](Oc3nc(-c4cnn(C)c4)cn4ncc(C)c34)[C@H]2C1 [Example 197, 1-((1S,5R,6R)-6-((3-methyl-6-(1-methyl-1H-pyrazol-4-yl)pyrazolo[1,5-a]pyrazin-4-yl)oxy)-3-azabicyclo[3.2.0]heptan-3-yl)prop-2-en-1-one] | < 0.001 µM | < 1 µM | –
C=CC(=O)N(C)[C@H]1C[C@@](C)(Oc2nc(-c3cnn(C)c3)cn3ncc(F)c23)C1 [Example 211, N-((1s,3s)-3-((3-fluoro-6-(1-methyl-1H-pyrazol-4-yl)pyrazolo[1,5-a]pyrazin-4-yl)oxy)-3-methylcyclobutyl)-N-methylacrylamide] | < 0.001 µM | < 1 µM | –
C=CC(=O)N1CC[C@]2(C1)C[C@](C)(Oc1nc(-c3cnn(C)c3)cn3nccc13)C2 [Example 212, rac-1-((2s,4r)-2-methyl-2-((6-(1-methyl-1H-pyrazol-4-yl)pyrazolo[1,5-a]pyrazin-4-yl)oxy)-6-azaspiro[3.4]octan-6-yl)prop-2-en-1-one] | 0.001 to 0.01 µM | – | 1 to 10 µM
C=CC(=O)N1CC[C@]2(C1)C[C@@](C)(Oc1nc(-c3cnn(C)c3)cn3nccc13)C2 [Example 213, rac-1-((2r,4s)-2-methyl-2-((6-(1-methyl-1H-pyrazol-4-yl)pyrazolo[1,5-a]pyrazin-4-yl)oxy)-6-azaspiro[3.4]octan-6-yl)prop-2-en-1-one] | 0.001 to 0.01 µM | – | 1 to 10 µM
C=CC(=O)N(C)[C@@H]1C[C@@H](Oc2nc(-c3cnn(C)c3)cn3nccc23)C1(C)C [Example 220, N-((1R,3R)-2,2-dimethyl-3-((6-(1-methyl-1H-pyrazol-4-yl)pyrazolo[1,5-a]pyrazin-4-yl)oxy)cyclobutyl)-N-methylacrylamide] | 0.001 to 0.01 µM | 1 to 10 µM | –
C=CC(=O)NC12CCCC(Oc3nc(-c4cnn(C)c4)cn4nccc34)(C1)C2 [Example 224, N-(5-((6-(1-methyl-1H-pyrazol-4-yl)pyrazolo[1,5-a]pyrazin-4-yl)oxy)bicyclo[3.1.1]heptan-1-yl)acrylamide] | < 0.001 µM | 1 to 10 µM | –
C=CC(=O)N(CC(F)F)[C@H]1C[C@@](C)(Oc2nc(-c3cnn(C)c3)cn3nccc23)C1 [Example 226, N-(2,2-difluoroethyl)-N-((1s,3s)-3-methyl-3-((6-(1-methyl-1H-pyrazol-4-yl)pyrazolo[1,5-a]pyrazin-4-yl)oxy)cyclobutyl)acrylamide] | < 0.001 µM | < 1 µM | –
C=CC(=O)N[C@H]1C[C@@](C)(Oc2nc(-c3cnn(C)c3)cn3nccc23)C1 [Example 228, N-((1s,3s)-3-methyl-3-((6-(1-methyl-1H-pyrazol-4-yl)pyrazolo[1,5-a]pyrazin-4-yl)oxy)cyclobutyl)acrylamide] | < 0.001 µM | < 1 µM | –
C=CC(=O)N(C)[C@H]1C[C@@](C)(Oc2nc(-c3cnn(C)c3)cn3ncc(C4CC4)c23)C1 [Example 229, N-((1s,3s)-3-((3-cyclopropyl-6-(1-methyl-1H-pyrazol-4-yl)pyrazolo[1,5-a]pyrazin-4-yl)oxy)-3-methylcyclobutyl)-N-methylacrylamide] | < 0.001 µM | < 1 µM | –
